According to patent US20240116892A1, “HETEROCYCLIC AMIDE AND UREA COMPOUNDS AS JAK2 INHIBITORS” (Ajax Therapeutics, Inc., priority 2022, published 2024):

Molecular target: JAK2 (JH1 domain-catalytic, Y1007F, Y1008F) kinase (Homo sapiens (Human), UniProt O60674, Y1007F/Y1008F)
Test: JAK2 JH1 Domain Binding Assay
Conditions: qPCR readout
Experimental: JAK2 (JH1 domain-catalytic, Y1007F, Y1008F) kinase was expressed as N-terminal fusion to the DNA binding domain of NFkB in transiently transfected HEK293 cells and subsequently tagged with DNA for qPCR detection. Streptavidin-coated magnetic beads were treated with biotinylated small molecule ligands for 30 minutes at room temperature to generate affinity resins for kinase assays. The liganded beads were blocked with excess biotin and washed with blocking buffer (SeaBlock (Pierce), 1% BSA, 0.05% Tween 20, 1 mmol/L DTT) to remove unbound ligand and to reduce nonspecific phage binding. Binding reactions were assembled by combining kinases, liganded affinity beads, and test compounds in 1× binding buffer (1× PBS, 0.05% Tween 20, 0.1% BSA, 1 mmol/L DTT). Test compound was prepared as 111× stocks in 100% DMSO and directly diluted into the assay wells. All reactions were performed in polypropylene 384-well plates in a final volume of 0.02 mL. The assay plates were incubated at room temperature with shaking for 1 hour and the affinity beads were washed with wash buffer (1× PBS, 0.05% Tween 20). The beads were then re-suspended in elution buffer (1× PBS, 0.05% Tween 20, 0.5 μmol/L non-biotinylated affinity ligand) and incubated at room temperature with shaking for 30 minutes. The kinase concentration in the eluate was measured by qPCR.

JAK2 (JH1 domain-catalytic, Y1007F, Y1008F) kinase, sequence (O60674 849-1124 Y1007F/Y1008F): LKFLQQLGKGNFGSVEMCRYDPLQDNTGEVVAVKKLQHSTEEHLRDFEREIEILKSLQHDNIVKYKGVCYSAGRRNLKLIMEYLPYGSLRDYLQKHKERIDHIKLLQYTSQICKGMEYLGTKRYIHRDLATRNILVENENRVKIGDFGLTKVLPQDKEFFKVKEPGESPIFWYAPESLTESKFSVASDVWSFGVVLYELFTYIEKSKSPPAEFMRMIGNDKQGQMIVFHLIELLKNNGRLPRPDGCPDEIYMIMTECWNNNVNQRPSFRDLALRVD

Kd | Compound
< 10 nM | COCc1cc2nc(N3CCC(N(C)C(=O)Nc4cc(C(F)(F)F)cn(C)c4=O)CC3)cnc2[nH]1 [Example I-77, 1-(1-(6-(methoxymethyl)-5H-pyrrolo[2,3-b]pyrazin-2-yl)piperidin-4-yl)-1-methyl-3-(1-methyl-2-oxo-5-(trifluoromethyl)-1,2-dihydropyridin-3-yl)urea]
10 to 50 nM | CC(=O)Nc1cnc(N2CCC(N(C)C(=O)Nc3cc(CN4CCN(C)CC4)cc(C(F)(F)F)c3)CC2)cn1 [Example I-19, N-(5-(4-(1-methyl-3-(3-((4-methylpiperazin-1-yl)methyl)-5-(trifluoromethyl)phenyl)ureido)piperidin-1-yl)pyrazin-2-yl)acetamide]
50 to 1000 nM | CN(C(=O)Nc1cc(C(F)(F)F)cn(C)c1=O)C1CCN(c2cnc3cncn3c2)CC1 [Example I-91, 1-(1-(imidazo[1,5-a]pyrimidin-3-yl)piperidin-4-yl)-1-methyl-3-(1-methyl-2-oxo-5-(trifluoromethyl)-1,2-dihydropyridin-3-yl)urea]
< 10 nM | COc1c[nH]c2ncc(N3CC[C@H](N(C)C(=O)Nc4cc(C(F)(F)F)cn(C)c4=O)[C@H](F)C3)nc12 [Example I-151, 1-((3R,4S)-3-fluoro-1-(7-methoxy-5H-pyrrolo[2,3-b]pyrazin-2-yl)piperidin-4-yl)-1-methyl-3-(1-methyl-2-oxo-5-(trifluoromethyl)-1,2-dihydropyridin-3-yl)urea]
< 10 nM | COc1c[nH]c2ncc(N3CCC(N(C)C(=O)Nc4cc(C(F)(F)F)cn(C)c4=O)CC3)cc12 [Example I-94, 1-(1-(3-methoxy-1H-pyrrolo[2,3-b]pyridin-5-yl)piperidin-4-yl)-1-methyl-3-(1-methyl-2-oxo-5-(trifluoromethyl)-1,2-dihydropyridin-3-yl)urea]
< 10 nM | COc1c[nH]c2ncc(N3CC[C@@H](N(C)C(=O)Nc4cc(C(F)(F)F)cn(C)c4=O)[C@H](F)C3)nc12 [Example I-150, 1-((3R,4R)-3-fluoro-1-(7-methoxy-5H-pyrrolo[2,3-b]pyrazin-2-yl)piperidin-4-yl)-1-methyl-3-(1-methyl-2-oxo-5-(trifluoromethyl)-1,2-dihydropyridin-3-yl)urea]
< 10 nM | CN(C(=O)Nc1cc(C(F)(F)F)cn(C)c1=O)C1CC2(C1)CN(c1cnc3[nH]ncc3n1)C2 [Example I-72, 1-(2-(1H-pyrazolo[3,4-b]pyrazin-5-yl)-2-azaspiro[3.3]heptan-6-yl)-1-methyl-3-(1-methyl-2-oxo-5-(trifluoromethyl)-1,2-dihydropyridin-3-yl)urea]
1000 to 5000 nM | CO[C@H]1C[C@H](n2[nH]c3ncc(N4CCC(N(C)C(=O)Nc5cc(C(F)(F)F)cn(C)c5=O)CC4)cc3c2=O)C1 [Example I-119, 1-(1-(2-((1r,3r)-3-methoxycyclobutyl)-3-oxo-2,3-dihydro-1H-pyrazolo[3,4-b]pyridin-5-yl)piperidin-4-yl)-1-methyl-3-(1-methyl-2-oxo-5-(trifluoromethyl)-1,2-dihydropyridin-3-yl)urea]
10 to 50 nM | Cc1cc(NC(=O)N(C)C2CCN(c3cnccn3)CC2)cc(C(F)(F)F)c1 [Example I-8, 1-methyl-3-(3-methyl-5-(trifluoromethyl)phenyl)-1-(1-(pyrazin-2-yl)piperidin-4-yl)urea]

Continued, compound first:

Compound | Kd
COCc1cc2nc(N3CC[C@H]4[C@H](C3)OCCN4C(=O)Nc3cc(C(F)(F)F)cn(C)c3=O)cnc2[nH]1 [Example I-164-a, (4aS,8aS)-6-(6-(methoxymethyl)-5H-pyrrolo[2,3-b]pyrazin-2-yl)-N-(1-methyl-2-oxo-5-(trifluoromethyl)-1,2-dihydropyridin-3-yl)octahydro-1/-pyrido[3,4-b][1,4]oxazine-1-carboxamide] | 50 to 1000 nM
CC(=O)Nc1cnc(C2=CC[C@H](N(C)C(=O)Nc3cc(C(F)(F)F)cn(C)c3=O)CC2)cn1 [Example I-140-b, (R)—N-(5-(4-(1-methyl-3-(1-methyl-2-oxo-5-(trifluoromethyl)-1,2-dihydropyridin-3-yl)ureido)cyclohex-1-en-1-yl)pyrazin-2-yl)acetamide] | < 10 nM
Cc1cc2nc(N3CCC(N(C)C(=O)Nc4cc(C(F)(F)F)cn(C)c4=O)C(F)(F)C3)cnc2[nH]1 (single isomer, unassigned) [Example I-37-b, (S)- or (R)-1-(3,3-difluoro-1-(6-methyl-5H-pyrrolo[2,3-b]pyrazin-2-yl)piperidin-4-yl)-1-methyl-3-(1-methyl-2-oxo-5-(trifluoromethyl)-1,2-dihydropyridin-3-yl)urea] | < 10 nM
COc1c[nH]c2ncc(N3CC[C@@H]4[C@@H](C3)OCCN4C(=O)Nc3cc(C(F)(F)F)cn(C)c3=O)nc12 [Example I-163-b, (4aR,8aR)-6-(7-methoxy-5H-pyrrolo[2,3-b]pyrazin-2-yl)-N-(1-methyl-2-oxo-5-(trifluoromethyl)-1,2-dihydropyridin-3-yl)octahydro-1H-pyrido[3,4-b][1,4]oxazine-1-carboxamide] | 10 to 50 nM
COc1n[nH]c2ncc(N3CC[C@H]4[C@H](C3)OCCN4C(=O)Nc3cc(C(F)(F)F)cn(C)c3=O)cc12 (single isomer, unassigned) [Example I-169-b] | < 10 nM
CNc1n[nH]c2ncc(N3CC[C@@H](N(C)C(=O)Nc4cc(C(F)(F)F)cn(C)c4=O)C(F)(F)C3)cc12 [Example I-125-a, (R)-1-(3,3-difluoro-1-(3-(methylamino)-1H-pyrazolo[3,4-b]pyridin-5-yl)piperidin-4-yl)-1-methyl-3-(1-methyl-2-oxo-5-(trifluoromethyl)-1,2-dihydropyridin-3-yl)urea] | < 10 nM
CN(C(=O)Nc1cc(C(F)(F)F)cn(C)c1=O)[C@@H]1CCN(c2cnc3[nH]n(C)c(=O)c3c2)C[C@@H]1F [Example I-89-a, 1-((3S,4R)-3-fluoro-1-(2-methyl-3-oxo-2,3-dihydro-1H-pyrazolo[3,4-b]pyridin-5-yl)piperidin-4-yl)-1-methyl-3-(1-methyl-2-oxo-5-(trifluoromethyl)-1,2-dihydropyridin-3-yl)urea] | 10 to 50 nM
CN(C(=O)Nc1cc(C(F)(F)F)cn(C)c1=O)[C@H]1CCN(c2cnc3[nH]c(=O)[nH]c3c2)C[C@H]1F [Example I-100-a, 1-((3R,4S)-3-fluoro-1-(2-oxo-2,3-dihydro-1H-imidazo[4,5-b]pyridin-6-yl)piperidin-4-yl)-1-methyl-3-(1-methyl-2-oxo-5-(trifluoromethyl)-1,2-dihydropyridin-3-yl)urea] | < 10 nM
CN(C(=O)Nc1cc(C(F)(F)F)cn(C)c1=O)[C@H]1CCN(c2cnc3[nH]ncc3c2)C[C@@H]1F (stereo in doubt) [Example I-61-a, 1-((3S,4S)-3-fluoro-1-(1H-pyrazolo[3,4-b]pyridin-5-yl)piperidin-4-yl)-1-methyl-3-(1-methyl-2-oxo-5-(trifluoromethyl)-1,2-dihydropyridin-3-yl)urea] | < 10 nM
COc1c[nH]c2ncc(N3CC[C@H](N(C)C(=O)Nc4cc(C(F)(F)F)cn(C)c4=O)C[C@@H]3C)nc12 [Example I-161-a, 1-((2S,4S)-1-(7-methoxy-5H-pyrrolo[2,3-b]pyrazin-2-yl)-2-methylpiperidin-4-yl)-1-methyl-3-(1-methyl-2-oxo-5-(trifluoromethyl)-1,2-dihydropyridin-3-yl)urea] | 50 to 1000 nM
COc1n[nH]c2ncc(N3CC[C@@H](N(C)C(=O)Nc4cc(C(F)(F)F)cn(C)c4=O)[C@H](F)C3)cc12 [Example I-84-b, 1-((3R,4R)-3-fluoro-1-(3-methoxy-1H-pyrazolo[3,4-b]pyridin-5-yl)piperidin-4-yl)-1-methyl-3-(1-methyl-2-oxo-5-(trifluoromethyl)-1,2-dihydropyridin-3-yl)urea] | < 10 nM
CN(C(=O)Nc1cc(C(F)(F)F)cn(C)c1=O)C1CCN(c2cnc3[nH]ccc3n2)CC1(C)C (single isomer, unassigned) [Example I-49-a, (R)- or (S)-1-(3,3-dimethyl-1-(5H-pyrrolo[2,3-b]pyrazin-2-yl)piperidin-4-yl)-1-methyl-3-(1-methyl-2-oxo-5-(trifluoromethyl)-1,2-dihydropyridin-3-yl)urea] | < 10 nM
[2H]C1([2H])C[C@H](N(C)C(=O)Nc2cc(C(F)(F)F)cn(C)c2=O)[C@@H](OC)C([2H])([2H])N1c1cnc2[nH]ncc2c1 [Example I-153-b, 1-((3S,4S)-3-methoxy-1-(1H-pyrazolo[3,4-b]pyridin-5-yl)piperidin-4-yl-2,2,6,6-d4)-1-methyl-3-(1-methyl-2-oxo-5-(trifluoromethyl)-1,2-dihydropyridin-3-yl)urea] | 10 to 50 nM
COc1n[nH]c2ncc(N3CC[C@H](N(C)C(=O)Nc4cc(C(F)(F)F)cn(C)c4=O)C[C@@H]3C)cc12 [Example I-133-a, 1-((2S,4S)-1-(3-methoxy-1H-pyrazolo[3,4-b]pyridin-5-yl)-2-methylpiperidin-4-yl)-1-methyl-3-(1-methyl-2-oxo-5-(trifluoromethyl)-1,2-dihydropyridin-3-yl)urea] | < 10 nM
CN(C(=O)Nc1cc(C(F)(F)F)cn(C)c1=O)[C@@H]1C[C@@H]2C[C@H]1CN2c1cnc2[nH]ccc2n1 [Example I-43-a, 1-((1S,4S,5R)-2-(5H-pyrrolo[2,3-b]pyrazin-2-yl)-2-azabicyclo[2.2.1]heptan-5-yl)-1-methyl-3-(1-methyl-2-oxo-5-(trifluoromethyl)-1,2-dihydropyridin-3-yl)urea] | 10 to 50 nM
